Experimental data: patent publication US11091476B2, “Protein kinase inhibitors, preparation method and medical use thereof” (Gan & Lee Pharmaceuticals, priority 2015, dated 2021)
Entries after “also recorded” stand apart in the source; their conditions may differ. Read-outs that look alike come from different tables or passages of the source.

Legend:
Pim-1 = Pim-1 (Homo sapiens (Human), UniProt P11309); assay: Kinase inhibitory activity on Pim-1; type: biochemical
Protocol: 1.2 Experimental Preparation • 1.2.1 Preparation of Kinase Reaction Buffer I: The 5×Reaction Buffer A (Promega; V307A-C) provided in the kit was mixed and diluted with MILLI-Q® H2O and 0.1 M DTT (dithiothreitol) to give 4× kinase buffer, and then MILLI-Q® H2O was further added to finally formulate the solution into 1× Kinase buffer.
1 μl of 10 mM standard substance stock solution was taken and added to 9 μl of kinase reaction buffer I and mixed well; then 90 μl of kinase reaction buffer I was added and mixed well; then 100 μl of kinase reaction buffer I was added and mixed well. The final concentration was 50 μM. • b. 40 μl of kinase reaction buffer II was added into B2 to B10 of a 96-well plate, and 50 μl of the above solution was added into B1; • c. 10 μl of solution was taken from well B1, added into B2, and mixed well; then 10 μl of the resulting solution was taken and added into B3, and dilution was carried out in sequence to B9, so as to obtain control solutions that are diluted by 5-fold sequentially. • (2) Preparation of test compound solution: • a. Test compound solutions at a certain concentration were taken, respectively, diluted with kinase reaction buffer I to a final concentration of 50 μM compound solution; • b. 40 μl of kinase reaction buffer II was added into H2 to H10 of the 96-well plate; and 50 μl of the above solution was added into H1; • c. 10 μl of solution was taken from well H1, added into H2, and mixed well; then 10 μl of the resulting solution was taken and added into H3, and dilution was carried out in sequence to H9, so as to obtain test compound solutions that are diluted by 5-fold sequentially. • 1.2.4 Preparation of a mixed solution of reaction substrate and ATP: • a. Preparation of ATP solution: • 200 μl of 0.1 mM ATP solution: 2 μl of 10 mM ATP was added to 198 μl of kinase reaction buffer I; • 300 μl of 50 μM ATP solution: 150 μl of kinase reaction buffer I was added to 150 μl of the above 0.1 mM ATP solution; • b. Preparation of 300 μl of reaction substrate solution: • 150 μl 1 μg/μl reaction substrate stock solution was added to 150 μl kinase reaction buffer I, and mixed well; • c. The above a/b solutions were mixed to obtain mixed solutions, respectively.
1.3 Experimental process: • 1.3.1: 2 μl of compound solutions of various concentrations were taken, added to a 384-well plate, and centrifuged 3 minutes; • 1.3.2: 4 μl of kinase solution was added to each well, centrifuged at 5000 rpm and 18° C. for 10 minutes, and shaken on a plate shaker for 10 minutes; • 1.3.3: 4 μl of mixed solution of substrate and ATP was added to each well, centrifuged at 5000 rpm and 18° C. for 10 minutes, and shaken on a plate shaker at 37° C. for 90 minutes; • 1.3.4: The 384-well plate was taken out, and allowed to stand to room temperature; • 1.3.5: 10 μl of ADP-GLO™ reagent was added to each well, centrifuged at 5000 rpm and 18° C. for 18 minutes, and shaken on a plate shaker at 25° C. for 40 minutes, and then the reaction was stopped; • 1.3.6: 20 μl of kinase detection reagent was added to each well, centrifuged at 5000 rpm and 18° C. for 10 minutes, and shaken on a plate shaker at 25° C. for 30 minutes; and • 1.3.7: M1000pro MICROPLATE READER was used to read […] values.
The inhibition rate of each compound at each concentration point was calculated by the formula as follows and curve fitting was performed by GraphPad Prism 5 software to obtain the IC50 value.

[1] = Plasma and brain exposure levels after single intragastric administration; type: in vivo, CD-1 mice; conditions: for Cmax: read-out: Blood concentration Cmax, Plasma
Protocol: The CD-1 mice were used as the test animals, the concentrations of the drugs in the plasma and brain tissue of mice at different time points after single intragastric administration of the representative compound of this disclosure were determined by LC/MS/MS, so as to study the plasma level and brain exposure level of the compounds of the disclosure in mice.
For each test drug, 12 male CD-1 mice were administered intragastrically at a dose of 10 mg/kg and an administration volume of 10 ml/kg after fasting overnight.
The whole brain was collected, mashed and frozen in liquid nitrogen. Ten hours after administration, the remaining animals were sacrificed, whole blood was collected by cardiac puncture, and the whole brain was collected, mashed and frozen in liquid nitrogen.
The whole brain was collected, mashed and frozen in liquid nitrogen. 48 hours after administration, the remaining animals were sacrificed, whole blood was collected by cardiac puncture, and the whole brain was collected, mashed and frozen in liquid nitrogen.
Treatment of the whole blood sample: The collected whole blood was anticoagulated with EDTA-K2, and centrifuged, the supernatant was removed, and the residue was frozen and stored at −20° C. until the sample was analyzed by LC-MS/MS.
Brain homogenate sampling: Brain homogenate were dispersed with PBS (pH=7.4): MeOH (v:v, 2:1) solution in a volume 5 times of the volume of the brain homogenate. 100 μl of solution was taken, and the protein therein was precipitated with 600 μl IS. The mixture was centrifuged at 13,000 rpm and 20-25° C. for 15 minutes. 50 μL of the supernatant was mixed with 150 μL of water containing 0.3% FA and centrifuged at 4° C. 5 μL of the sample was analyzed by LC-MS/MS.
The linear range of sample analysis was 1-2000 ng/ml, and the lowest quantification limit was 1 ng/ml.

[2] = Pharmacokinetic determination in mouse (LC/MS/MS of plasma); type: in vivo, ICR mice; conditions: for AUC(0-t): read-out: Area under curve AUC0-t; for AUC(0-inf): read-out: Area under curve AUC0-∞; for half-life: read-out: Half life T1/2 (converted); for MRT: read-out: Retention time MRT
Protocol: Pharmacokinetic Determination of Representative Compounds of this Disclosure in Mouse
The ICR mice were used as the test animals, and the concentrations of the drugs in the plasma of mice at different time points after intragastric administration and intravenous administration of the representative compound of the present disclosure were determined by LC/MS/MS, so as to study the pharmacokinetic behavior of the compounds of the disclosure in mice and evaluate the pharmacokinetic characteristics thereof.
An appropriate amount of sample was weighed, and added with 0.1% hydroxyethyl cellulose/0.5% TWEEN®80 to a final volume to give 0.5 mg/ml solution for intragastric administration.
Whole blood was anticoagulated with EDTA-K2 and centrifuged, the supernatant was removed, and the residue was frozen at −20° C. until sample analysis. […] The plasma samples were treated in the same manner as that employed for plasma samples of the intragastrically administered group. Plasma samples were analyzed by LC-MS/MS, sample pretreatment was performed using protein precipitation method, the linear range of sample analysis was 1-2000 ng/ml, and the lowest quantification limit was 1 ng/ml.

[3] = male, mouse, po, CD-1 mice, intragastric 10 mg/kg, brain, read-out: Area under curve AUC0-last, Brain
[4] = male, mouse, po, CD-1 mice, intragastric 10 mg/kg, brain, read-out: The time for blood concentration reaching peak Tmax, Brain
[5] = male, mouse, po, CD-1 mice, intragastric 10 mg/kg, plasma, read-out: Area under curve AUC0-last, Plasma
[6] = male, mouse, po, CD-1 mice, intragastric 10 mg/kg, plasma
[7] = male, mouse, po, CD-1 mice, intragastric 10 mg/kg, plasma, read-out: The time for blood concentration reaching peak Tmax, Plasma
[8] = male, ICR, mouse, plasma, po, mice, single intragastric administration, 5 mg/kg, Mean ± SD
[9] = male, ICR, mouse, plasma, mice, single intravenous administration, 2 mg/kg, Mean ± SD

Chain of Pim-1 (P11309 whole entry): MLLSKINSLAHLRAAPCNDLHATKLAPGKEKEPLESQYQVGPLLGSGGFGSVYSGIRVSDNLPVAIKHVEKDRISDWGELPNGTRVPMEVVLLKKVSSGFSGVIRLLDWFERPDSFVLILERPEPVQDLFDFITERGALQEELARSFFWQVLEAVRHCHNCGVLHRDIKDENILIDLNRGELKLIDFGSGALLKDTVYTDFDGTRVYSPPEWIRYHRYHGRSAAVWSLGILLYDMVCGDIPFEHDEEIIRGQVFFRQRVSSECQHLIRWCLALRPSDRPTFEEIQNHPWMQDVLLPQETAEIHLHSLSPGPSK

SMILES | IC50 (Pim-1) [nM] | AUC(0-t) [1, 3] [ng·h/mL] | Tmax [1, 4] [h] | AUC(0-t) [1, 5] [ng·h/mL] | Cmax [1, 6] [ng/mL] | Tmax [1, 7] [h] | AUC(0-t) [2, 8] [ng·h/mL] | AUC(0-inf) [2, 8] [ng·h/mL] | AUC(0-t) [2, 9] [ng·h/mL] | AUC(0-inf) [2, 9] [ng·h/mL] | other results
CCN1CCC(c2ccc(Nc3ncc(F)c(-c4cc(F)c5c(c4)C4(CCCC4)C(C)=N5)n3)nc2)CC1 [Example 12, N-(5-(1-ethylpiperidin-4-yl)pyridin-2-yl)-5-fluoro-4-(7′-fluoro-2′-methylspiro [cyclopentane-1,3′-indol]-5′-yl)pyrimidine-2-amino] | 15.1 | – | – | – | – | – | – | – | – | – | –
CC1=Nc2c(F)cc(-c3nc(Nc4ccc(C5CCN(C)CC5)cn4)ncc3F)cc2C12CCCC2 [Example 17, 5-Fluoro-4-(7′-fluoro-2′-methylspiro[cyclopentane-1,3′-indol]-5′-yl)-N-(5-(1-methylpiperidin-4-yl)pyridin-2-yl)pyrimidine-2-amino] | 38.3 | 16800 | 4 | 7660 | 639 | 4 | 2130 ± 96.9 | 2500 ± 387 | 1140 ± 77.8 | 1327 ± 4 | Blood concentration Cmax, Brain ([1]; CD-1 mice, intragastric 10 mg/kg, brain): 1270 ng/mL; Kp ([1]; male, mouse, brain/plasma, po, CD-1 mice, intragastric 10 mg/kg, ratio, read-out: Cmax Brain/Plasma): 1.98; Blood brain distribution, in words ([1]; mice, relative to LY2835219): better blood brain distribution; also recorded: good blood-brain distribution; bioavailability ([2]; male, ICR, mouse, plasma, oral, mice, intragastric 5 mg/kg vs intravenous 2 mg/kg): 75.1%; Cmax ([2]; male, ICR, mouse, plasma, po, mice, single intragastric administration, 5 mg/kg, Mean ± SD, read-out: Blood concentration Cmax): 134 ± 11.8 ng/mL; half-life [2, 8]: 8.38 ± 3.16 h; MRT [2, 8]: 9.45 ± 1.05 h; Vd ([2]; male, ICR, mouse, plasma, mice, single intravenous administration, 2 mg/kg, Mean ± SD, read-out: Apparent volume of distribution VZ): 19.8 ± 0.81 L/kg; half-life [2, 9]: 9.1 ± 0.26 h; MRT [2, 9]: 7.51 ± 0.28 h; Clearance rate Cl ([2]; mice, single intravenous administration, 2 mg/kg, Mean ± SD): 25.2 ± 1.72 mL/min/kg; Bioavailability and half-life in mice, in words ([2]; relative to LY2835219): higher bioavailability and longer half-life
CCN1CCN(Cc2ccc(Nc3ncc(F)c(-c4cc(F)c5nc(C)n(C(C)C)c5c4)n3)nc2)CC1 [LY2835219, reference compound] | – | 1110 | 6 | 4250 | 836 | 1.5 | 756 ± 34 | 765 ± 34 | 674 ± 82.1 | 679 ± 81 | clearance ([2]; male, ICR, mouse, plasma, mice, single intravenous administration, 2 mg/kg, Mean ± SD, read-out: Clearance rate Cl): 49.6 ± 5.72 mL/min/kg
